Data on 19 compounds can be found in patent US20240101538A1, “PROTEIN-PROTEIN INTERACTION MODULATORS OF AURORA KINASE A AND THEIR USE IN THE PREVENTION AND/OR TREATMENT OF CANCER” (EBERHARD KARLS UNIVERSITÄT TÜBINGEN, priority 2020, published 2024).

Read-outs that look alike come from different tables or passages of the source.

The test system of assay [1] is NMP53^−/− cells. Nature of the assay: Colony formation assay on NMP53^−/− cells. In kind it is cell-based, murine. As to conditions: colony formation assay; for minimal effective concentration: 5 days, read-out: EC (NMP53^−/−); for selectivity for NMP53^−/− cells: NMP53^−/− versus NMCdkn2a^ARF−/− cells. The source says: (§1) To evaluate the effect of small molecules equipped with R-spine interacting moieties, the inventors screened a focused library of proprietary p38a MAP-Kinase inhibitors which were equipped with R-spine interacting pharmacophores. To this end, the inventors utilized a screening system as developed in Dauch et al.^2 The screening system is based on colony formation assays of cell lines isolated from Nras-driven, Trp53-deficient murine HCCs, whose development is dependent on MYC (NMP53^−/− cells), as well as Nras-driven, Cdkn2a^ARF-deficient murine HCCs, which develop independently of MYC (NMCdkn2a^ARF−/− cells). Importantly, NMP53^−/− cells are sensitive to AURKA inhibitors, which induce a conformational shift in AURKA, whereas NMCdkn2a^ARF−/− are not sensitive to such compounds.
(§2) For Colony Formation Assays, cells were seeded at a density of 50 000 cells per 6 well and next day treated with a 2-fold dilution series of the indicated compounds or the highest corresponding DMSO concentration as control. After 5 days, the cells were fixed with a 10% formaldehyde solution for 30 min, washed once with water, stained with a 0.5% crystal violet solution for 30 min and washed twice with water. The compounds effective concentration (EC) was determined according to the lowest concentration in the dilution series, that inhibited cell growth substantially. The resulting benzamide containing hit structure 1, with a twofold selectivity towards NMP53^−/− cells (effective concentration on NMP53^−/− cells (EC): 2 μM, EC on Cdkn2a^ARF−/−: 4 μM, FIG. 1), served as the inventors' starting point for further compound development.

Assay [2] deals with NMCdkn2a^ARF−/− cells. Nature of the assay: Colony formation assay on NMCdkn2a^ARF−/− cells. Format: cell-based, murine. As to conditions: 5 days, read-out: EC (NMCdkn2a^ARF−/−).
Text: as §1, §2

Setting [3] is: Mus musculus, 120 h, lowest concentration of 2-fold dilution series that inhibited cell growth substantially.

Consider `CC(=O)Nc1cc(NCc2ccc(-c3cn[nH]c3)cc2)ccc1F` [Compound 2b, N-(5-((4-(1H-pyrazole-4-yl)benzyl)amino)-2-fluorophenyl)acetamide], for which the minimal effective concentration in assay [1] (Mus musculus, 120 h) was above 4 µM; in assay [2] (setting [3]), above 4 µM; in assay [2] (Mus musculus, 120 h), above 4 µM.

In the case of `CCn1cc(-c2ccc(CNc3ccc(F)c(NC(=O)CCc4ccco4)c3)cc2)cn1` [Compound 3b, N-(5-((4-(1-ethyl-1H-pyrazole-4-yl)benzyl)amino)-2-fluorophenyl)-3-(furan-2-yl)propanamide], the minimal effective concentration in assay [1] (setting [3]) was determined as 0.125 µM; in assay [1] (Mus musculus, 120 h) it was 0.125 µM; in assay [2] (setting [3]) it was 0.25 µM; in assay [2] (Mus musculus, 120 h) it was 0.25 µM. Further, the “selectivity for NMP53^−/− cells” value in assay [1] is recorded as “loss of selectivity”.

For the compound `CCCn1cc(-c2ccc(CNc3ccc(F)c(NC(=O)CCc4ccco4)c3)cc2)cn1` [Compound 3c, N-(2-fluoro-5-((4-(1-propyl-1H-pyrazole-4-yl)benzyl)amino)phenyl)-3-(furan-2-yl)propanamide], the minimal effective concentration is 4 µM in assay [1] (setting [3]); 4 µM in assay [1] (Mus musculus, 120 h); above 4 µM in assay [2] (setting [3]); above 4 µM in assay [2] (Mus musculus, 120 h). For the same compound, the “selectivity for NMP53^−/− cells” value in assay [1] is reported as “loss of selectivity”.

Consider `CC(C)n1cc(-c2ccc(CNc3ccc(F)c(NC(=O)CCc4ccco4)c3)cc2)cn1` [Compound 3d, N-(2-fluoro-5-((4-(1-isopropyl-1H-pyrazole-4-yl)benzyl)amino)phenyl)-3-(furan-2-yl)propanamide], for which the minimal effective concentration in assay [1] (setting [3]) came out at 4 µM; in assay [1] (Mus musculus, 120 h), 4 µM; in assay [2] (setting [3]), 4 µM; in assay [2] (Mus musculus, 120 h), 4 µM. For the same compound, the “selectivity for NMP53^−/− cells” value in assay [1] is given as “loss of selectivity”.

Regarding `CN(C(=O)CCc1ccco1)c1cc(NCc2ccc(-c3cnn(C)c3)cc2)ccc1F` [Compound 4, N-(2-fluoro-5-((4-(1-methyl-1H-pyrazole-4-yl)benzyl)amino)phenyl)-3-(furan-2-yl)-N-methylpropanamide], the minimal effective concentration was above 4 µM in assay [1] (setting [3]); above 4 µM in assay [1] (Mus musculus, 120 h); above 4 µM in assay [1] (lowest concentration of 2-fold dilution series that inhibited cell growth substantially); above 4 µM in assay [2] (setting [3]); above 4 µM in assay [2] (Mus musculus, 120 h).

With `O=C(CC1CCCCC1)Nc1cc(NCc2cc(-c3cc4cccnc4[nH]3)ccn2)ccc1F` [Compound 8oj, N-(5-(((4-(1H-Pyrrolo[2,3-b]pyridin-2-yl)pyridin-2-yl)methyl)amino)-2-fluorophenyl)-2-cyclohexylacetamide], the minimal effective concentration in assay [1] (Mus musculus, 120 h) came out at 0.5 µM; in assay [2] (Mus musculus, 120 h), 1 µM.

As to `O=C(CC1CC1)Nc1cc(NCc2cc(-c3cc4cccnc4[nH]3)ccn2)ccc1F` [Compound 8ok, N-(5-(((4-(1H-Pyrrolo[2,3-b]pyridin-2-yl)pyridin-2-yl)methyl)amino)-2-fluorophenyl)-2-cyclopropylacetamide], the minimal effective concentration in assay [1] (Mus musculus, 120 h) was 0.5 µM; in assay [2] (Mus musculus, 120 h) it was 1 µM.

For `Cc1ccc(CCC(=O)Nc2cc(NCc3ccc(-c4cn[nH]c4)cc3)ccc2F)o1` [Compound 106h, N-(5-((4-(1H-Pyrazol-4-yl)benzyl)amino)-2-fluorophenyl)-3-(5-methylfuran-2-yl)propanamide], the minimal effective concentration was 0.25 µM in assay [1] (Mus musculus, 120 h) and 2 µM in assay [2] (Mus musculus, 120 h).

In the case of `O=C(CCc1ccc[nH]1)Nc1cc(NCc2ccc(-c3cn[nH]c3)cc2)ccc1F` [Compound 106q, N-(5-((4-(1H-Pyrazol-4-yl)benzyl)amino)-2-fluorophenyl)-3-(1H-pyrrol-2-yl)propanamide], the minimal effective concentration in assay [1] (Mus musculus, 120 h) was 1 to 2 µM; in assay [2] (Mus musculus, 120 h) it was above 4 µM.

As for `Cn1cc(-c2ccc(CNc3ccc(F)c(NC(=O)CCC4CCCO4)c3)cc2)cn1` (stereo not drawn) [Compound 107g, N-(2-fluoro-5-((4-(1-methyl-1H-pyrazol-4-yl)benzyl)amino)phenyl)-3-(tetrahydrofuran-2-yl)propanamide], the minimal effective concentration in assay [1] (Mus musculus, 120 h) was determined as 0.125 µM; in assay [2] (Mus musculus, 120 h), 2 µM.

Regarding `Cc1ccc(CCC(=O)Nc2cc(NCc3ccc(-c4cnn(C)c4)cc3)ccc2F)o1` [Compound 107h, N-(2-fluoro-5-((4-(1-methyl-1H-pyrazol-4-yl)benzyl)amino)phenyl)-3-(5-methylfuran-2-yl)propanamide], the minimal effective concentration in assay [1] (Mus musculus, 120 h) amounted to 0.125 µM; in assay [2] (Mus musculus, 120 h), 1 µM.

`Cn1cc(-c2ccc(CNc3ccc(F)c(NC(=O)Cc4ccco4)c3)cc2)cn1` [Compound 107m, N-(2-fluoro-5-((4-(1-methyl-1H-pyrazol-4-yl)benzyl)amino)phenyl)-2-(furan-2-yl)acetamide]: the minimal effective concentration in assay [1] (Mus musculus, 120 h) was 0.125 µM; in assay [2] (Mus musculus, 120 h) it was 16 µM.

Consider `Cn1cc(-c2ccc(CNc3ccc(F)c(NC(=O)CCc4ccc[nH]4)c3)cc2)cn1` [Compound 107q, N-(2-fluoro-5-((4-(1-methyl-1H-pyrazol-4-yl)benzyl)amino)phenyl)-3-(1H-pyrrol-2-yl)propanamide], for which the minimal effective concentration in assay [1] (Mus musculus, 120 h) was 0.5 to 1 µM; in assay [2] (Mus musculus, 120 h), 4 µM.

In the case of `O=C(CCc1ccco1)Nc1cc(NCc2ccc(-c3cn[nH]c3)cc2)ccc1Cl` [Compound 113a, N-(5-((4-(1H-Pyrazol-4-yl)benzyl)amino)-2-chlorphenyl)-3-(furan-2-yl)propanamide], the minimal effective concentration in assay [1] was 0.5 µM; in assay [2] it was above 1 µM.

As for `Cn1cc(-c2ccc(COc3ccc(F)c(NC(=O)CCc4ccccc4)c3)cc2)cn1` [Compound 124, N-(2-fluoro-5-((4-(1-methyl-1H-pyrazol-4-yl)benzyl)oxy)phenyl)-3-phenylpropanamide], the minimal effective concentration in assay [1] (Mus musculus, 120 h) was 0.25 µM; in assay [2] (Mus musculus, 120 h) it was above 1 µM.

Regarding `COc1cc(CNc2ccc(F)c(NC(=O)CCc3ccco3)c2)ccc1-c1cn[nH]c1` [Compound 127b, N-(2-fluoro-5-((3-methoxy-4-(1H-pyrazol-4-yl)benzyl)amino)phenyl)-3-(furan-2-yl)propanamide], the minimal effective concentration in assay [1] (Mus musculus, 120 h) is 0.25 µM; in assay [2] (Mus musculus, 120 h) it was above 1 µM.

`O=C(CCc1ccco1)Nc1cc(NCc2ccc(-c3cn[nH]c3)cc2F)ccc1F` [Compound 127c, N-(2-fluoro-5-((2-fluoro-4-(1H-pyrazol-4-yl)benzyl)amino)phenyl)-3-(furan-2-yl)propanamide]: the minimal effective concentration in assay [1] (Mus musculus, 120 h) was 0.125 µM; in assay [2] (Mus musculus, 120 h), 0.5 to 1 µM.

In the case of `COc1cc(-c2cn[nH]c2)ccc1CNc1ccc(F)c(NC(=O)CCc2ccco2)c1` [Compound 127d, N-(2-fluoro-5-((2-methoxy-4-(1H-pyrazol-4-yl)benzyl)amino)phenyl)-3-(furan-2-yl)propanamide], the minimal effective concentration is 0.25 µM in assay [1] (Mus musculus, 120 h) and 2 µM in assay [2] (Mus musculus, 120 h).

In the case of `O=C(CCc1ccco1)Nc1cc(NCc2ccc(-c3cn[nH]c3)nc2)ccc1F` [Compound 127e, N-(5-(((6-(1H-Pyrazol-4-yl)pyridin-3-yl)methyl)amino)-2-fluorophenyl)-3-(furan-2-yl)-propanamide], the minimal effective concentration was 0.5 µM in assay [1] (Mus musculus, 120 h) and above 2 µM in assay [2] (Mus musculus, 120 h).
